Data as given in ChEMBL document CHEMBL3259794, “Towards the discovery of drug-like epigallocatechin gallate analogs as Hsp90 inhibitors” (Bioorg Med Chem Lett, 2014).

biological target: T1, Heat shock protein HSP 90-beta (Homo sapiens, UniProt P08238); assay: Inhibition of HSP90 (unknown origin) by luciferase refolding assay
T1 sequence (P08238 whole entry): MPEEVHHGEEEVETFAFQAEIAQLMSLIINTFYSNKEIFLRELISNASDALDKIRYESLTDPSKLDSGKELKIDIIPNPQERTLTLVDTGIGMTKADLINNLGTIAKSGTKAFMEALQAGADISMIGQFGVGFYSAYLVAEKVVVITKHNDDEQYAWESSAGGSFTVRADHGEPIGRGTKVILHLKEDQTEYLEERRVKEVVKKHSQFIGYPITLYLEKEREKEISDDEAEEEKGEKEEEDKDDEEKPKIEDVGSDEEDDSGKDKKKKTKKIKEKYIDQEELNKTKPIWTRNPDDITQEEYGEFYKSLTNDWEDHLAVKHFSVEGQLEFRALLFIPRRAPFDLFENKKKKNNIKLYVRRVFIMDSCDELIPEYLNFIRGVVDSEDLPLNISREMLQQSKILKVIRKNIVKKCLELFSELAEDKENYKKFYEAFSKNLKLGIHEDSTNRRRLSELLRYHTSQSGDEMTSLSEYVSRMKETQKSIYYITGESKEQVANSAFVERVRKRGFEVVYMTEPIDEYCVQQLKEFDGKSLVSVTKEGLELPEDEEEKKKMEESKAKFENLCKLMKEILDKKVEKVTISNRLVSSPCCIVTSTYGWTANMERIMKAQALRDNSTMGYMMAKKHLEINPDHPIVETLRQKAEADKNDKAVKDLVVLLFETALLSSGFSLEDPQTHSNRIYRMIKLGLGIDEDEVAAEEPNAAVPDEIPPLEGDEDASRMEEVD

Row | IC50 | SMILES
1 | 81 µM | O=C(O[C@@H]1Cc2c(O)cc(O)cc2O[C@@H]1c1ccc(O)c(O)c1)C1CCCCC1
2 | 98 µM | O=C(O[C@H]1Cc2c(O)cc(O)cc2O[C@@H]1c1ccc(O)c(O)c1)C1CCCCC1
3 | 75 µM | O=C(N[C@@H]1Cc2c(O)cc(O)cc2O[C@@H]1c1cc(O)c(O)c(O)c1)c1ccccc1
4 | 41 µM | O=C(O[C@@H]1Cc2c(O)cc(O)cc2O[C@@H]1c1cc(O)c(O)c(O)c1)c1ccc(F)cc1
5 | 69 µM | O=C(O[C@@H]1Cc2c(O)cc(O)cc2O[C@@H]1c1ccc(O)c(O)c1)[C@H]1CC[C@H](F)CC1
6 | 58 µM | O=C(O[C@@H]1Cc2c(O)cc(O)cc2O[C@@H]1c1cc(O)c(O)c(O)c1)c1ccc(F)c(F)c1
7 | 110 µM | O=C(O[C@H]1Cc2c(O)cc(O)cc2O[C@@H]1c1ccc(O)c(O)c1)c1ccccc1
8 | 24 µM | O=C(O[C@@H]1Cc2c(O)cc(O)cc2O[C@@H]1c1cc(O)c(O)c(O)c1)c1ccccc1
9 | 150 µM | O=C(O[C@H]1Cc2c(O)cc(O)cc2O[C@@H]1c1ccccc1)c1cc(O)c(O)c(O)c1 (racemic)
10 | 310 µM | O=C(O[C@@H]1Cc2c(O)cc(O)cc2O[C@@H]1c1ccc(O)c(O)c1)[C@H]1CC[C@@H](O)CC1
11 | 64 µM | O=C(O[C@@H]1Cc2c(O)cc(O)cc2O[C@@H]1c1cc(O)c(O)c(O)c1)c1ccncc1
12 | 63 µM | O=C(O[C@@H]1Cc2c(O)cc(O)cc2O[C@@H]1c1ccccc1)c1ccccc1 (racemic)
13 | 35 µM | O=C(O[C@@H]1Cc2ccccc2O[C@@H]1c1ccccc1)c1cc(O)c(O)c(O)c1 (racemic)
14 | 410 µM | O=C(O[C@@H]1Cc2c(O)cc(O)cc2O[C@@H]1c1ccc(O)c(O)c1)C1CC1
15 | 30 µM | O=C(O[C@@H]1Cc2c(O)cc(O)cc2O[C@@H]1c1cc(O)c(O)c(O)c1)C1CCCCC1
16 | 44 µM | O=S(=O)(N[C@@H]1Cc2c(O)cc(O)cc2O[C@@H]1c1cc(O)c(O)c(O)c1)c1ccccc1
17 | 440 µM | O=C(O[C@@H]1Cc2c(O)cc(O)cc2O[C@@H]1c1ccc(O)c(O)c1)[C@H]1CC[C@H](O)CC1
18 | 280 µM | O=C(O[C@H]1Cc2c(O)cc(O)cc2O[C@@H]1c1ccc(O)c(O)c1)[C@H]1CC[C@@H](O)CC1
19 | 65 µM | O=C(O[C@@H]1Cc2c(O)cc(O)cc2O[C@@H]1c1ccc(O)c(O)c1)[C@H]1CC[C@@H](F)CC1
20 | 120 µM | O=C(O[C@H]1Cc2c(O)cc(O)cc2O[C@@H]1c1ccccc1)c1ccccc1 (racemic)

Row | SMILES | IC50
21 | O=C(O[C@@H]1Cc2c(O)cc(O)cc2O[C@H]1c1cc(O)c(O)c(O)c1)c1cc(O)c(O)c(O)c1 [GALLOCATECHIN GALLATE] | 34 µM
22 | O=C(O[C@@H]1Cc2c(O)cc(O)cc2O[C@@H]1c1cc(O)c(O)c(O)c1)c1cc(O)c(O)c(O)c1 [EPIGALOCATECHIN GALLATE] | 155 µM

biological target: T1, Heat shock protein HSP 90-beta; assay: Ratio of EGCG IC50 to compound IC50 for HSP90 (unknown origin)

Row | Ratio IC50 | SMILES
23 | 3 | O=S(=O)(N[C@@H]1Cc2c(O)cc(O)cc2O[C@@H]1c1cc(O)c(O)c(O)c1)c1ccccc1
